Laboratory results reported in US4652584A, “Acetylenic phenoxypropanol derivatives and pharmaceutical compositions for the treatment of hypertension” (McNeilab, Inc., priority 1984, dated 1987).
Where two headings read alike, the source gives them in different places. Each block holds one molecule with its values, some of them ahead of it.

Experiments:
[1] = biological target: T1, Beta-1 (Cavia porcellus, UniProt H0W3H1); details: guinea pig atrial pairs, isoproterenol tachycardia, Schild plot; read-out: pA2 (converted)
T1 construct: The atria were mounted in 50 ml baths in Krebs-bicarbonate buffer; from tissue; host or cells: guinea pig atria (isolated atrial pairs, female animals)

[2] = system: isolated rabbit thoracic aorta; assay: Calcium Entry Blockade test: tension (tone) of vascular rings; details: for inhibition at 10 µM: Oryctolagus cuniculus, 10 μM compound
From the text: (§1) A fourth test for determining the ability of compounds of the invention to act as anti-hypertensive agents is the Calcium Entry Blockade test using vascular smooth muscle. Male New Zealand White Rabbits (H.A.R.E.) (body weight=1.8-2.4 kg) are sacrificed by cervical fracture and the thoracic aorta is removed under standard HEPES buffer. The aorta is rinsed in several changes of standard HEPES and cleared of extraneous tissue. Scissors are used to segment the aorta into 3 mm rings (approximately 12 rings/aorta). For studies of tension, individual rings are equilibrated for one hour in standard HEPES buffer under isometric tension (1 g) between two parallel horizontal wires. For calcium influx studies, the following procedures are executed. After completion of the one-hour equilibration period, the test is begun. To baths containing vascular rings to be tested for the effects of an experimental agent on calcium influx in the basal state (absence of an agonist), the agent dissolved in 20 μl of vehicle (PEG 300 or H2 O) is added and a parallel vehicle bath is started receiving the vehicle alone. To baths containing vascular rings to be tested for the effects of an experimental agent on calcium influx during agonist stimulation, the experimental agent is added in a fashion identical to that described for the basal test and parallel vehicle baths are also initiated. All baths are allowed to equilibrate for 30 minutes. Subsequently, to basal test baths, 20 μl of H2 O is added; to baths receiving KCl, 400 μl of H2 O containing 60 mM KCl is added; to baths receiving NE, 20 μl of H2 O containing 10 μM NE is added. All baths are allowed to equilibrate for an additional 281/2 minutes. At this time, all rings in each bath are removed from their respective bath, quickly but gently blotted and transferred to a bath containing an identical solution but also containing ^45 Ca(20 μl, 2.5 μCi/ml; New England Nuclear, Boston, MA). Rings are allowed exposure to the radiolabelled solution for exactly three minutes. Subsequently, the rings are removed, blotted to remove excess fluid, and placed in predesignated test tubes containing ice cold wash solution where they are allowed to equilibrate for 45 minutes in the presence of vigorous bubbling with 100% O2. Subsequently, individual rings are removed, blotted, weighed (Mettler Balance model AE 163), and placed in a scintillation vial containing 2 ml of 7.5 mM EDTA solution (pH=10.0). Vials are held overnight in darkness. […] Subsequently, 13 ml of Beckman HP scintillation fluid is added to each vial with shaking, vials are cleaned, and counted using a Beckman LS 6800 liquid scintillation counter. Blanks containing solutions alone are simultaneously counted to provide background information.
(§2) For tension studies, the following procedures are executed. After completion of the one-hour equilibration period, the test is begun. At this time, all tissue tensions are adjusted mechanically back to the 1 gram baseline. Subsequently, all tissue baths receive either KCl (60 mM) plus phentolamine (1 μM) in 400 μl H2 O or NE (10 μM in 20 μl PEG 300). All rings are allowed to develop tension for exactly 30 minutes. Subsequently, the bathing solution is removed and replaced immediately with normal HEPES buffer without experimental agents and the tension response is allowed to "wash out". Two subsequent washes are introduced at 10 minute intervals before the rings can achieve the prestimulation baseline tone. Subsequently, the experimental drug or vehicle is added to each bath and the rings are allowed to equilibrate for exactly 30 minutes. Finally, the agonist challenge is repeated as described previously in the presence of the experimental agent. […]

[3] = system: isolated rabbit thoracic aorta (potential-dependent calcium channel); assay: Calcium Entry Blockade test: 45Ca influx in vascular rings; details: for calcium channel blocking / calcium entry blockade activity: overall result in words
From the text: as §1, §2

[4] = system: spontaneously hypertensive rats; assay: Spontaneously Hypertensive Rat (SHR) test, mean arterial pressure via aortic cannula; type: in vivo; details: 30 mg per kg of body weight, p.o.
From the text: The activity of compounds of formula (I) for the treatment of hypertension may be determined using the Spontaneously Hypertensive Rat (SHR) test as described below.
In this test, the arterial pressure of adult spontaneously hypertensive rats (Charles River) is monitored directly via an aortic cannula. The SH rats are anesthetized with an inhalation anesthetic (ether). The left carotid artery is isolated and cannulated. The tip of the cannula is advanced to the aorta and the cannula is exteriorized behind the neck at the level of the scapula. Animals are placed in individual cages and allowed to recover from the anesthetic and are kept unrestrained. The arterial cannula is connected to the pressure transducer which is attached to the recorder. The test compounds are administered to at least 3 rats at doses selected in the range of 0.1 to 100 mg/kg of body weight by intraperitoneal (i.p.) or oral (p.o.) routes of administration. The arterial pressure and heart rate are monitored for a minimum of 24 hours. A test compound is considered to be active as an antihypertensive agent if the mean arterial pressure (MAP) indicates a fall of >15 mm of Hg. Each animal serves as its own control.

[5] = system: Isolated Heart (coronary arteries); assay: Langendorff's Isolated Heart model (coronary vasodilation)
Procedure: In addition to their utility in the treatment of hypertension, the compounds of formula (I) are useful in the treatment of the symptoms of angina pectoris by virtue of their ability to dilate coronary arteries. Often, peripheral arteries are also dilated by compounds which dilate coronary arteries and thus, this test is also useful for predicting activity as an antihypertensive. Compounds of the invention were tested in this regard in the "Langendorff's Isolated Heart" model as generally described in "Pharmaceutical Experiments on Isolated Preparations", Staff of the Department of Pharmacology, University of Edinbourgh, 2nd Ed., Churchill, Livingston, N.Y. (1970) pages 112-119. In this test, the compound of the invention of formula (I) produced in Example 6b. required a 0.04 μM concentration to elicit a 30% increase in flow.

[6] = system: Beta Adrenergic; assay: Evaluation of Potential Beta Adrenergic Blocking Activity; design: species or system guinea pig; details: overall result in words
[7] = isolated Langendorff test, 0.01 to 3.0 μM
[8] = KCl stimulated, 1.0 and 10.0 μM

T1 sequence (H0W3H1 1-470): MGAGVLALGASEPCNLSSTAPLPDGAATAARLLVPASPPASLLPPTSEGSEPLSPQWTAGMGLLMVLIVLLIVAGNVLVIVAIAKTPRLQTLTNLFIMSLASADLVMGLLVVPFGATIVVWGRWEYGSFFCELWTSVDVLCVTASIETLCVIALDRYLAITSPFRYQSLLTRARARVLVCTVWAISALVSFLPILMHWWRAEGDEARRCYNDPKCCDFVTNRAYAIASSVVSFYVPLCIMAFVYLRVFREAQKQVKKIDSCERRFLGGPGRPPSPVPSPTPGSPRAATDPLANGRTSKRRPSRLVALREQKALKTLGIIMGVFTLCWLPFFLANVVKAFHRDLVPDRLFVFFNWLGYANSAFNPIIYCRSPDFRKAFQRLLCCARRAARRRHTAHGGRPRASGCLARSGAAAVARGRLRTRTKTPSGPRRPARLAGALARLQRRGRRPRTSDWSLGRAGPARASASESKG

Kb [1]: 7.08 nM
Compound: CC(=O)Nc1cccc(C#Cc2ccccc2OCC(O)CNC(C)(C)C)c1 (stereo not shown) [Example 18, N-[3-[[2-[3-[(1,1-Dimethylethyl)amino]-2-hydroxypropoxy]phenyl]ethynyl]phenyl]acetamide 4-methylbenzene sulfonate]

Compound: CN(C)c1ccc(C#Cc2ccccc2OCC(O)CNC(C)(C)C)cc1.O=C(O)/C=C/C(=O)O (stereo not shown) [Example 16, 1-[(1,1-Dimethylethyl)amino]-3-[2-[(4-dimethylaminophenyl)ethynyl]phenoxy]-2-propanol (E)-2-Butenedioate (1:1)]
inhibition at 10 µM ([2]; KCl-dependent, read-out: reduction of KCl-dependent contractile activity): 50% | effect on norepinephrine-induced tone / tension [2]: without changing tension | effect on KCl-dependent calcium flux ([3]; KCl-dependent, 10 μM compound): no effect | calcium channel blocking / calcium entry blockade activity ([3]; isolated rabbit thoracic aorta): did not exhibit typical calcium channel blocking activity | effect on norepinephrine-induced calcium influx [3]: reduced norepinephrine-induced calcium flux | maximum change in mean arterial blood pressure (fall) [4]: 69 mm of Hg

Compound: COc1ccc(C#Cc2ccccc2)c(OCC(O)CNCCc2ccc(OC)c(OC)c2)c1 (stereo not shown) [Example 6b, 1-[[2-(3,4-Dimethyoxyphenyl)ethyl]amino]-3-[5-methoxy-2-(phenylethynyl)phenoxy]-2-propanol (E)-2-Butenedioate (2:1)]
EC30 ([5]; Langendorff isolated heart, 30% increase in flow, read-out: concentration required to elicit a 30% increase in flow): 40 nM | activation at 0.1 µM ([5]; at 0.1 μM): 39% | coronary vasodilator activity [5, 7]: active coronary vasodilator | effect on contractile force [5, 7]: no effect | effect on spontaneous rate [5, 7]: no effect

Compound: CC(C)(C)NCC(O)COc1ccccc1C#Cc1ccccc1.Cl (stereo not shown) [Example 1d, 1-[(1,1-Dimethylethyl)amino]-3-[2-(phenylethynyl)phenoxy]-2-propanol Hydrochloride]
inhibition of KCl stimulated effects on tone [2, 8]: dose dependent inhibition | inhibition at 10 µM ([2]; KCl stimulated, read-out: inhibition of KCl stimulated tone): 100% | blockade of related vascular tone ([2]; isolated rabbit thoracic aorta): significant blockade | effect on norepinephrine-induced tone / tension [2]: no effect | inhibition of KCl stimulated calcium influx ([3]; KCl stimulated, 10 μM compound): 100% | inhibition of KCl stimulated effects on calcium influx [3, 8]: dose dependent inhibition | blockade of the potential-dependent calcium channel ([3]; isolated rabbit thoracic aorta): significant blockade | calcium channel blocking / calcium entry blockade activity ([3]; isolated rabbit thoracic aorta): calcium entry blockade activities | effect on norepinephrine-induced calcium influx [3]: no effect | β-blocking activity [6]: β-blocking
